Assay [1] relates to Male Sprague Dawley rats. The assay is described as follows: Formaldehyde test, analgesic activity, late phase. The format is in vivo, rat. The following applies: for Paw licking Score observed at 40 mg/Kg / Paw lifting Score observed at 40 mg/Kg: 40 mg/Kg ip 15 min before formaldehyde 2.5%, late phase 22.5-27.5 min, maximum score 10. As for the experimental part: The analgesic activity of the formula (1) compounds and of milnacipran, chosen as reference compound, was determined using a conventional pain module in which formaldehyde is injected to cause a painful sensation in animals (Eur. J. Pharmacol. 2001, 421, 109). The rats (Male Sprague Dawley rats (ICO: OFA SD [IOPS], Iffa Credo, France) are placed in observation boxes in Plexiglas above an angled mirror to facilitate observation of their hind paws. After thirty minutes habituation, the animals are given an injection of formaldehyde diluted to 2.5% on the plantar surface of the right hind paw. The injection of formaldehyde produces behavioural responses which occur in two phases: • an early phase, 0 to 5 min after injection of formaldehyde, corresponding to stimulation of the receptors specialized in the transmission of nociceptive stimuli. • a late phase which occurs between 20 and 30 min after injection. This phase corresponds to the stimulation of receptors by inflammatory mediators and/or to hyperexcitability of the dorsal horn induced during the first phase. This later phase therefore involves central sensitization and causes pain more representative of neuropathic pain compared with the pain which occurs during the first phase. On this account, only the results obtained in this later phase are taken into consideration in the present application. To study the compounds of the invention, we selected two expressions of painful behaviour (paw licking, lifting of injected paw) and chose as observation period the period which corresponds to the late phase (i.e. 22.5-27.5 min). During this 5 min phase, the animals are observed every 30 s and the following behaviours are recorded: licking or non-licking of the injected hind paw and lifting or not of the injected hind paw. Ten observations give a maximum score of 10 for each parameter. The products of the invention are given via intra-peritoneal route 15 min before the injection of formaldehyde.

The subject of the next assay is adult rat. The assay is described as follows: Ultrasonic vocalizations (USV) test, antistress/anxiolytic activity. The format is in vivo. The following applies: 22 kHz vocalizations. As for the experimental part:
Antistress/anxiolytic activity was determined on a conventional model using ultrasonic vocalizations (USVs) emitted by an adult rat when subjected to stress (Eur. J. Pharmacol. 2003, 463, 133).
The experiments were conducted in standard operative cages (250×320×250 mm) insulated from noise and light. The floor of the cages is covered with a grid in stainless steel and connected to an electric shock generator delivering a fixed intensity of 0.4 mA. The device is provided on one of its walls with a light source (2 lux). The ULTRAVOX system (Noldus, Wageningen, Pays Bas) is used to record ultrasonic vocalizations at a frequency defined by an ultrasound detector, an audio-filter box and acquisition software. For this experiment, the capture frequency was set at 22 kHz. The software allows the recording of all vocalizations of 22 kHz lasting a time of more 100 ms emitted by the animals. The test starts with a habituation session of 11 min 25 s, during which the animals are individually placed in the operative device without being subjected to conditioning (neither light nor electric shock).
During a second phase, the animals are subjected to a conditioning phase of 3 sessions given over 3 consecutive days. […]

Assay [2] has as its system Male Sprague Dawley rats. The assay is described as follows: Forced swimming test, antidepressant activity. In kind it is in vivo, rat. The following applies: 40 mg/Kg ip, single administration 30 min before test; 5 min observation; FIG. 1. The protocol:
The antidepressant activity of the compounds of the invention was evidenced by the forced swimming test in rats (Eur. J. Pharmacol. 1978, 47, 379). This model is widely used since it is predictive of antidepressant activity in man.
The rats (Male Sprague Dawley rats (ICO: OFA SD [IOPS], Iffa Credo, France), are placed in a cylinder (height 45 cm and diameter 20 cm) filled with water at 25° C.±0.5 up to a height of 17 cm. This height allows the rats to swim or float without their paws touching the bottom of the cylinder. 24 h before the test day, the rats are placed in the cylinder for 15 min, after which time they no longer attempt to escape and remain immobile. On the test day, the animals are put back in the cylinder and the duration of immobility of the animal is measured and monitored using audiovisual recording for 5 min. The products of the invention are administered via ip route 30 min before the test. A rat is considered to be immobile when it allows itself to float and only makes small movements to remain on the surface.

For `CCN(CC)C(=O)[C@@]1(c2ccccc2)C[C@H]1CN` (racemic) [milnacipran, cis-(±)-N,N-diethyl-(1-phenyl-2-aminomethyl)-cyclopropanecarboxamide, reference compound], in the assay with Male Sprague Dawley rats [1], the “Paw licking Score observed at 40 mg/Kg” value is recorded as 2.0 ± 0.8 and the “Paw lifting Score observed at 40 mg/Kg” value was 6.3 ± 1.4. Besides, the “Duration of USVs minimum significant dose (MSD)” value in the assay on adult rat is 10 mg/kg. Also, the “Duration of immobility (effect in words)” value with Male Sprague Dawley rats [2] was “no effect”.
In the case of “(±)-cis-N,N-diethyl (1-phenyl-2-aminomethyl)-cyclobutanecarboxamide [Compound 1a]”, in the assay with Male Sprague Dawley rats [1], the “Paw licking Score observed at 40 mg/Kg” value is recorded as 1.0 ± 0.4 and the “Paw lifting Score observed at 40 mg/Kg” value worked out at 3.7 ± 1.1. Besides, the “Paw lifting and paw licking in late phase (effect in words)” value in the assay with Male Sprague Dawley rats [1] (ip, late phase of formaldehyde test) is “significantly reduces both paw lifting and paw licking”. In addition, in the assay on adult rat, the “Duration of USVs minimum significant dose (MSD)” value was determined as 10 mg/kg. For the same molecule, in the assay on Male Sprague Dawley rats [2], the “Duration of immobility (effect in words)” value was “significantly decreasing the duration of immobility”.

(Values after US8455550B2, “Derivatives of aminocyclobutane or aminocyclobutene, their method of preparation and their use as medical products” (Pierre Fabre Medicament, priority 2009, dated 2013).)
